Experimental data reported in ChEMBL document CHEMBL4052724, “Influence of the cellular environment on ligand binding kinetics at membrane-bound targets” (Bioorg Med Chem Lett, 2017).

Legend:
[1] = target: T1, Type-1 angiotensin II receptor (Homo sapiens) (UniProt P30556); test: Antagonist activity at human AT1 receptor expressed in CHO cells assessed as reduction in angiotensin 2-induced inositol phosphate accumulation by measuring dissociation rate constant preincubated with cells followed by compound washout in presence of losartan and subsequent addition of angiotensin 2 for 5 mins; format: functional, cell-based
T1 sequence (whole entry): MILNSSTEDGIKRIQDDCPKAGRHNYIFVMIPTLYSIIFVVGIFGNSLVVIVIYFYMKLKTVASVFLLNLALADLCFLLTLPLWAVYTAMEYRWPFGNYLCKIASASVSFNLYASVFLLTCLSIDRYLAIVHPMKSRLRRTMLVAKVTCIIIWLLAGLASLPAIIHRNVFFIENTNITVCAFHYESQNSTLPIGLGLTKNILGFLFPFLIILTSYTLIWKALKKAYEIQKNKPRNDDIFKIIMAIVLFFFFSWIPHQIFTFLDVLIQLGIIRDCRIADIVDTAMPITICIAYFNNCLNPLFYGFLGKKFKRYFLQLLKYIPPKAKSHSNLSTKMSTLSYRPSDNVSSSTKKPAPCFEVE

[2] = target: T1, Type-1 angiotensin II receptor (Homo sapiens); test: Antagonist activity at human AT1 receptor expressed in CHO cells assessed as reduction in angiotensin 2-induced inositol phosphate accumulation by measuring dissociation rate constant preincubated with cells followed by compound washout and subsequent addition of angiotensin 2 for 5 mins; format: functional, cell-based
[3] = target: T1, Type-1 angiotensin II receptor (Homo sapiens); test: (§1) Antagonist activity at human AT1 receptor expressed in CHO cells assessed as reduction in angiotensin 2-induced inositol phosphate accumulation by measuring residence time constant preincubated with cells followed by compound washout and subsequent addition of angiotensin 2 for 5 mins; format: functional, cell-based
[4] = target: T1, Type-1 angiotensin II receptor (Homo sapiens); test: as §1, with “washout in presence of losartan” for “washout”; format: functional, cell-based
[5] = target: T1, Type-1 angiotensin II receptor (Homo sapiens); test: Displacement of [3H]-candesartan from human AT1 receptor expressed in CHO cells assessed as dissociation rate constant at 1.5 nM pre-incubated with cells followed by compound washout and subsequent addition of [3H]-candesartan up to 60 mins; format: cell-based
[6] = target: T1, Type-1 angiotensin II receptor (Homo sapiens); test: Binding affinity to human AT1 receptor expressed in CHO cells assessed as dissociation rate constant at 1.5 nM incubated for 60 mins followed by compound washout; format: cell-based
[7] = target: T1, Type-1 angiotensin II receptor (Homo sapiens); test: Binding affinity to human AT1 receptor expressed in CHO cells assessed as dissociation rate constant at 1.5 nM incubated for 60 mins followed by compound washout in presence of losartan; format: cell-based
[8] = target: T1, Type-1 angiotensin II receptor (Homo sapiens); test: Binding affinity to human AT1 receptor expressed in CHO cells assessed as dissociation rate constant at 1.5 nM incubated for 60 mins measured after isotopic dilution; format: cell-based
[9] = target: T1, Type-1 angiotensin II receptor (Homo sapiens); test: Displacement of [3H]-candesartan from human AT1 receptor expressed in CHO cells assessed as residence time at 1.5 nM pre-incubated with cells followed by compound washout and subsequent addition of [3H]-candesartan up to 60 mins; format: cell-based
[10] = target: T1, Type-1 angiotensin II receptor (Homo sapiens); test: Binding affinity to human AT1 receptor expressed in CHO cells assessed as residence time at 1.5 nM incubated for 60 mins followed by compound washout; format: cell-based
[11] = target: T1, Type-1 angiotensin II receptor (Homo sapiens); test: Binding affinity to human AT1 receptor expressed in CHO cells assessed as residence time at 1.5 nM incubated for 60 mins followed by compound washout in presence of losartan; format: cell-based
[12] = target: T1, Type-1 angiotensin II receptor (Homo sapiens); test: Binding affinity to human AT1 receptor expressed in CHO cells assessed as residence time at 1.5 nM incubated for 60 mins measured after isotopic dilution; format: cell-based
[13] = target: T1, Type-1 angiotensin II receptor (Homo sapiens); test: Displacement of [3H]-candesartan from human AT1 receptor expressed in CHO cells assessed as dissociation rate constant at 100 nM pre-incubated with cells followed by compound washout and subsequent addition of [3H]-candesartan up to 60 mins; format: cell-based
[14] = target: T1, Type-1 angiotensin II receptor (Homo sapiens); test: Binding affinity to human AT1 receptor expressed in CHO cells assessed as dissociation rate constant at 3 nM incubated for 60 mins followed by compound washout; format: cell-based
[15] = target: T1, Type-1 angiotensin II receptor (Homo sapiens); test: Binding affinity to human AT1 receptor expressed in CHO cells assessed as dissociation rate constant at 3 nM incubated for 60 mins followed by compound washout in presence of losartan; format: cell-based
[16] = target: T1, Type-1 angiotensin II receptor (Homo sapiens); test: Binding affinity to human AT1 receptor expressed in CHO cells assessed as dissociation rate constant at 3 nM incubated for 60 mins measured after isotopic dilution; format: cell-based
[17] = target: T1, Type-1 angiotensin II receptor (Homo sapiens); test: Displacement of [3H]-candesartan from human AT1 receptor expressed in CHO cells assessed as residence time at 100 nM pre-incubated with cells followed by compound washout and subsequent addition of [3H]-candesartan up to 60 mins; format: cell-based
[18] = target: T1, Type-1 angiotensin II receptor (Homo sapiens); test: Binding affinity to human AT1 receptor expressed in CHO cells assessed as residence time at 3 nM incubated for 60 mins followed by compound washout; format: cell-based
[19] = target: T1, Type-1 angiotensin II receptor (Homo sapiens); test: Binding affinity to human AT1 receptor expressed in CHO cells assessed as residence time at 3 nM incubated for 60 mins followed by compound washout in presence of losartan; format: cell-based
[20] = target: T1, Type-1 angiotensin II receptor (Homo sapiens); test: Binding affinity to human AT1 receptor expressed in CHO cells assessed as residence time at 3 nM incubated for 60 mins measured after isotopic dilution; format: cell-based

Row | SMILES | K [1] [min⁻¹] | K [2] [min⁻¹] | TIME [3] [h] | TIME [4] [h] | K [5] [min⁻¹] | K [6] [min⁻¹] | K [7] [min⁻¹] | K [8] [min⁻¹] | TIME [9] [h] | TIME [10] [h] | TIME [11] [h] | TIME [12] [h] | K [13] [min⁻¹] | K [14] [min⁻¹] | K [15] [min⁻¹] | K [16] [min⁻¹] | TIME [17] [h] | TIME [18] [h] | TIME [19] [h] | TIME [20] [h]
1 | CCCCc1nc(Cl)c(C(=O)O)n1Cc1ccc(-c2ccccc2-c2nn[nH]n2)cc1 | 0.021 | 0.016 | 1.05 | 0.8 |  |  |  |  |  |  |  |  |  |  |  |  |  |  |  | 
2 | CCOc1nc2cccc(C(=O)O)c2n1Cc1ccc(-c2ccccc2-c2nnn[nH]2)cc1 | 0.003 | 0.002 | 7.57 | 4.45 | 0.004 | 0.001 | 0.005 | 0.006 | 3.65 | 16.6 | 3.62 | 2.7 |  |  |  |  |  |  |  | 
3 | CCCCC(=O)N(Cc1ccc(-c2ccccc2-c2nn[nH]n2)cc1)[C@@H](C(=O)O)C(C)C |  |  |  |  |  | 0.028 | 0.049 | 0.041 |  | 0.6 | 0.333 | 0.417 |  |  |  |  |  |  |  | 
4 | CCCCC1=NC2(CCCC2)C(=O)N1Cc1ccc(-c2ccccc2-c2nnn[nH]2)cc1 | 0.058 | 0.039 | 0.433 | 0.283 |  |  |  |  |  |  |  |  | 0.04 | 0.128 | 0.101 | 0.104 | 0.417 | 0.15 | 0.15 | 0.167
